Values quoted from earlier work, collected in patent US5296468A, “GnRH analogs” (The Salk Institute for Biological Studies, priority 1993, dated 1994).

What was measured:
[1] = background, U.S. Pat. No. 4,072,668
the receptor = target: T1, the receptor (Homo sapiens, UniProt P30968); conditions: background, U.S. Pat. No. 4,072,668
T1 sequence (P30968 1-328): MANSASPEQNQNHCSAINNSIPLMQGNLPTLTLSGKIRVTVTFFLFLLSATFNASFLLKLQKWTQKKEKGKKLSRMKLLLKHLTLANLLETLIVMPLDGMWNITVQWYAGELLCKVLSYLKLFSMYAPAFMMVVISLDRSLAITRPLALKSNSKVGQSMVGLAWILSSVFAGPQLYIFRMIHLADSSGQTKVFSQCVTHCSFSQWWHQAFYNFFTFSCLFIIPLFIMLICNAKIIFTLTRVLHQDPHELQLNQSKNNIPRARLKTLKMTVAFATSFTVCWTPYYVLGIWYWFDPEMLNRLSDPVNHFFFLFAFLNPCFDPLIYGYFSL

- binding strength to the receptor compared with the native hormone (the receptor): greater binding strength to the receptor
Substance: pGlu-His-Trp-Ser-Tyr-D-Ala-Leu-Arg-Pro-Gly-NH2 [[D-Ala^6]-GnRH]
- biological potency compared with the native hormone [1]: greater biological potency than the native hormone
